In article PMC12274739, “Differential substrate degradation by super-degron: EGFP in wild-type mouse cells, PD-1 requires CRBN humanization” (iScience, 2025):

Test system: GL-261
Assay: GL-261 orthotopic model, growth in brain by MRI
Assay type: in vivo, mouse
Details: Pdcd1SD/SD/CrbnI391V/I391V mice, IBR oral administration
Text: In vivo proliferation of another tumor cell line, GL-261 […], was also examined to confirm the effect of PD-1 reduction other than the MC-38 adenocarcinoma cell line.[34]
GL-261 cells were passaged one day before inoculation and resuspended in HBSS at a concentration of 1 × 10^7 cells/mL. The mice were anesthetized by intraperitoneal injection of a combination of the three drugs described in the previous section and immobilized in a stereotactic frame (RWD Life Science, US). After a midline scalp incision, a small burr hole located 2 mm to the right and 1 mm anterior to the bregma was drilled into the skull (AP:1.0 mm, ML:-2.0 mm). The syringe needle was inserted at a depth of 3.0 mm and then raised 0.4 mm to get to a depth of 2.6 mm. 2 μL of cell (2 x10^4 cells) was injected using a 10 μL syringe (Hamilton, USA) connected to a syringe pump (KD Scientific, US; injection rate: 0.5 μL/min). After injection, the needle was left in place for an additional 5 min to avoid backflow. […]
All the MR experiments were performed at the Medical Research Support Center, Graduate School of Medicine, Kyoto University, Japan. […] The respiratory rate and rectal temperature of the animals were continuously monitored using a dedicated system (Model 1025, MR-compartible Small Animal Monitoring & Gating System; SA Instruments, Inc., NY, USA) and software (PC-SAM V8.04; SA Instruments). […]

## O=C1CC[C@H](N2Cc3c(OCc4ccc(CN5CCOCC5)cc4)cccc3C2=O)C(=O)N1 [IBR, iberdomide]
  proliferation of GL-261: suppressed
